Assays:
male ICR mice = experiment: Maximum tolerated dose (MTD) experiment, oral
Method: C26 was formulated in 5% Tween 20 (v/v), 50% lecithin (from soy bean: 40 mg in 800 μl of distilled water), and 45% PBS at 0.6, 2, and 6 mg/ml for oral administration. A dosing volume of 5 ml/kg was applied. C26 was administered orally to groups of three male Institute of Cancer Research (ICR) mice (23 ± 3 g) at an initiating dose of 3 mg/kg in an MTD setup. The animals received an initial dose of 3 mg/kg. If the animals survived for 72 hours, the group (10 mg/kg) was tested. If the animals survived for 72 additional hours, the group (30 mg/kg) was tested. Experiments were performed by Pharmacology Discovery Services Taiwan Ltd., in general accordance with the “Guide for the Care and Use of Laboratory Animals: Eighth Edition” (National Academies Press, Washington, DC, 2011). The animal care and protocol were reviewed and approved by the Institutional Animal Care and Use Committee (IACUC) at Pharmacology Discovery Services Taiwan Ltd.

[1] = system: S. Typhimurium invasion of MDCK cells; experiment: Invasion assay into MDCK cells; type: cell-based; settings: C26 100 μM, MOI 5; DMSO control 6.85
Method: MDCK (NBL-2) cells were seeded in a 24-well plate at a density of 10^5 cells per well in 1 ml of MEM (Gibco) and grown for 5 to 6 days, to allow polarization. Cells were washed every 2 days with fresh medium. After 5 days, each well contained ~1.8 × 10^6 MDCK cells. Bacteria were grown as for the invasion assay of HeLa cells and diluted to obtain an MOI of 5. The plate was centrifuged for 3 min at 300g to synchronize the infection and then incubated for 25 min at 37°C and 5% (v/v) CO2 to allow Salmonella invasion into MDCK cells. The quantification of invasiveness was carried out as described above for HeLa cells.

HilD = target: T1, HilD (Salmonella typhimurium, UniProt P0CL08); experiment: SEC-MALS of HilD; design: species or system S. Typhimurium
T1 construct: His6-SUMO (N, cleaved yes); made in house; host or cells: E. coli C41(DE3)
Method: SEC-MALS experiments were performed using a Superdex 75 Increase 10/300 GL column (Cytiva) coupled to a miniDAWN Tristar Laser photometer (Wyatt) and a RI-2031 differential refractometer (JASCO). HilD (100 μM) was incubated with 1% (v/v) of either DMSO or C26 (10 mM dissolved in DMSO) for 20 min at r.t. Fifty microliters of HilD samples was loaded onto the SEC column, equilibrated with SEC buffer, and separated using a flow rate of 0.5 ml min^−1. Data analysis was carried out with the ASTRA v7.3.0.18 software (Wyatt).

T1 sequence (P0CL08 whole entry): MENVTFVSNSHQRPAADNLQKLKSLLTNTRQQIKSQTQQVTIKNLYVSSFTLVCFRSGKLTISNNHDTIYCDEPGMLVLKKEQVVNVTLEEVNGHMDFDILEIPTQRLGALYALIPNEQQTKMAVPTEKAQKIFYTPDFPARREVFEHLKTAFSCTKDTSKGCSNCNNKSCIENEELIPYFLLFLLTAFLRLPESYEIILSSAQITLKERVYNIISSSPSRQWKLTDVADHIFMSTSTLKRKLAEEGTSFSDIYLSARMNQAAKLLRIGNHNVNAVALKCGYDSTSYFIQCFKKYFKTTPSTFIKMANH

Structure (SMILES): CN(CC(=O)NCc1ccc2c(c1)OCO2)Cc1ccc(Br)s1 [C26, N-(benzo[d][1,3]dioxol-5-ylmethyl)-2-{[(5-bromothiophen-2-yl)methyl](methyl)amino}acetamide]
- Toxicity (death / test) (male ICR mice; PO 3 mg/kg, 1 h): 0/3
- Toxicity (death / test) (male ICR mice; PO 3 mg/kg, 2 h): 0/3
- Toxicity (death / test) (male ICR mice; PO 3 mg/kg, 24 h): 0/3
- Toxicity (death / test) (male ICR mice; PO 3 mg/kg, 48 h): 0/3
- Toxicity (death / test) (male ICR mice; PO 3 mg/kg, 72 h): 0/3
- Toxicity (death / test) (male ICR mice; PO 10 mg/kg, 1 h): 0/3
- Toxicity (death / test) (male ICR mice; PO 10 mg/kg, 2 h): 0/3
- Toxicity (death / test) (male ICR mice; PO 10 mg/kg, 24 h): 0/3
- Toxicity (death / test) (male ICR mice; PO 10 mg/kg, 48 h): 0/3
- Toxicity (death / test) (male ICR mice; PO 10 mg/kg, 72 h): 0/3
- Toxicity (death / test) (male ICR mice; PO 30 mg/kg, 1 h): 0/3
- Toxicity (death / test) (male ICR mice; PO 30 mg/kg, 2 h): 0/3
- Toxicity (death / test) (male ICR mice; PO 30 mg/kg, 24 h): 0/3
- Toxicity (death / test) (male ICR mice; PO 30 mg/kg, 48 h): 0/3
- Toxicity (death / test) (male ICR mice; PO 30 mg/kg, 72 h): 0/3
- abnormalities at termination (male ICR mice; mouse, in vivo): no notable abnormalities
- Body weight (g) 72 h (male ICR mice; mouse, in vivo, po, 3 mg/kg): 29 g
- Body weight (g) Pre-dose (male ICR mice; mouse, in vivo, po, 10 mg/kg): 25 g
- mortality and adverse effects (male ICR mice; oral 3, 10 and 30 mg/kg, mice): Neither mortality nor notable adverse effects
- Invasion of MDCK cells (%), of the original inoculum [1]: 1.6%
- Molecular Mass of HilD, Measured (HilD; HilD + C26 100 μM, theoretical dimer 70.4): 69.8 kDa
- oligomerization state of HilD (HilD; equimolar C26 (100 μM)): no effect on the oligomerization state
